Experimental data published in patent US20150284347A1, “NEW BENZENE SULFONAMIDE THIAZOLE COMPOUNDS” (INSERM (INSTITUT NATIONAL DE LA SANTÉ ET DE LA RECHERCHE …, priority 2012, published 2015).

Key:
[1] = system: normal human melanocytes; assay: Trypan blue cell viability, normal melanocytes; type: cell-based; conditions: 10 μM, FIG. 2
Procedure: Primary cell cultures of human normal melanocytes were prepared from human foreskin. In order to determine the effect of compound HA15 on cell viability of melanocytes and fibroblasts, 10 μM of ciglitazone or 10 μM of HA15 were added to the cell samples. The measure of cell viability was performed in the same way as for FIG. 1. Results are expressed as the percentage of living cells relatively to the number of living cells in the presence of DMSO, as for FIG. 1. Normal human melanocytes (NHM) prepared from foreskins of newborns were grown under 5% CO2 at 37° C. in MCDB 153 (Sigma) supplemented with 2% FCS, bovine pituitary extract (10 μg/ml), PMA (8 nM), bFGF (ing/nil), insulin (5 μg/ml), hydrocortisone (0.5 μg/ml), forskolin (10 μM), gentamicin (20 μg/ml), penicillin/streptomycin/amphotericin B (100 U/ml) (Invitrogen). Cells were seeded in 6-well plates (60000 cells/well), depleted and incubated with compounds for the times indicated. Then cells were detached in the presence of 2000 of […] (Thermo) and 2 ml of RPMI 1640 Glutamax (Gibco) was added to the cell solution. 100 of this solution was stained for 1 minute with 100 of 0.4% trypan blue before counting with a Malassez chamber. The effect of compound HA15 on cell viability of melanocytes and fibroblasts was studied, as illustrated by FIG. 2. Primary cell cultures of human normal melanocytes were prepared from human foreskin. […]

[2] = system: melanoma cells resistant to dabrafenib; assay: Trypan blue cell viability, melanoma cells resistant to dabrafenib; type: cell-based, human; conditions: patient melanoma cells resistant to dabrafenib, FIG. 5
Procedure: The measure of cell viability was performed in the same way as for FIG. 1. Results are expressed as percentage of cells alive relatively to the number of living cells in the presence of DMSO, which is a negative control
Cells were seeded in 6-well plates (60000 cells/well), depleted and incubated with compounds for the times indicated. Then cells were detached in the presence of 2000 of HyQTase (Thermo) and 2 ml of RPMI 1640 Glutamax (Gibco) was added to the cell solution. 100 of this solution was stained for 1 minute with 100 of 0.4% trypan blue before counting with a Malassez chamber.
Melanoma cells resistant to dabrafenib wee prepared from patients treated and presented a resistance to dabrafenib. dabrafenib, [HA15], [SR47] and [SR50] were tested on these resistant cells, in order to determine their activity on cell viability of resistant melanoma cells, as illustrated in FIG. 5.

[3] = system: breast cells MCF7; assay: Trypan blue cell viability, MCF7; type: cell-based; conditions: 10 μM, MCF7, trypan blue exclusion, FIG. 1
Procedure: (§1) Cell viability was assessed by measuring the number of cells alive in samples of two different kind of prostate cells, respectively noted LNCAP and PC3, of breast cells noted MCF7, of colon cells noted HT29, of metastatic melanoma cell lines A375 and of melanoma cells from patients noted GIC. The measure of cell viability as performed by cell counting using the trypan blue exclusion method. Results were expressed as the percentage of cells alive relatively to the number of living cells in the presence of DMSO, which corresponds to the negative control associated to the 100% value. Cells were seeded in 6-well plates (60000 cells/well), depleted and incubated with compounds for the times indicated. Then cells were detached in the presence of 2000 of […] (Thermo) and 2 ml of RPMI 1640 Glutamax (Gibco) was added to the cell solution. 100 of this solution was stained for 1 minute with 100 of 0.4% trypan blue before counting with a Malassez chamber. The effect of compound on cell viability was studied on different types of cells. […] Cancer cells from prostate, breast, colon and melanoma A375 came from cell lines cultures. […] Results are expressed as percentage of cells alive relatively to the number of living cells in the presence of DMSO, which corresponds to the negative control associated to the 100% value. […]

[4] = system: prostate cells PC3; assay: Trypan blue cell viability, PC3; type: cell-based; conditions: 10 μM, PC3, trypan blue exclusion, FIG. 1
Procedure: as §1

[5] = system: prostate cells LNCAP; assay: Trypan blue cell viability, LNCAP; type: cell-based; conditions: 10 μM, trypan blue exclusion, FIG. 1
Procedure: as §1

[6] = system: normal human fibroblasts; assay: Trypan blue cell viability, normal fibroblasts; type: cell-based; conditions: 10 μM, FIG. 2
Procedure: Primary cell cultures of human normal melanocytes were prepared from human foreskin. In order to determine the effect of compound HA15 on cell viability of melanocytes and fibroblasts, 10 μM of ciglitazone or 10 μM of HA15 were added to the cell samples. The measure of cell viability was performed in the same way as for FIG. 1. Results are expressed as the percentage of living cells relatively to the number of living cells in the presence of DMSO, as for FIG. 1. Normal human fibroblasts prepared from foreskins of newborns were grown under 5% CO2 at 37° C. in DMEM medium supplemented with 10% FCS and penicillin/streptomycin (100 U/ml/[…]). Cells were seeded in 6-well plates (60000 cells/well), depleted and incubated with compounds for the times indicated. Then cells were detached in the presence of 2000 of […] (Thermo) and 2 ml of RPMI 1640 Glutamax (Gibco) was added to the cell solution. 100 of this solution was stained for 1 minute with 100 of 0.4% trypan blue before counting with a Malassez chamber. The effect of compound HA15 on cell viability of melanocytes and fibroblasts was studied, as illustrated by FIG. 2. Primary cell cultures of human normal melanocytes were prepared from human foreskin. In order to determine the effect of compound HA15 on cell viability of melanocytes and fibroblasts, 10 μM of ciglitazone or 10 μM of HA15 were added to the cell samples. […]

[7] = system: metastatic melanoma cell line A375; assay: Trypan blue cell viability, A375; type: cell-based; conditions: 10 μM, A375, trypan blue exclusion, FIG. 1

With `CC(=O)Nc1nc(-c2cccc(NS(=O)(=O)c3cccc4c(N(C)C)cccc34)c2)cs1` [HA15, N-(4-(3-(5-(dimethylamino)naphthalene-1-sulfonamido)phenyl)thiazol-2-yl)acetamide] as the compound, how does the “cell viability of normal melanocytes” value [1] read?
The value was “not affected”.

And the “cell viability of resistant melanoma cells” value [2]?
Its value is “inhibit cell viability of resistant melanoma cells”.

What about the “cell viability (cells alive relative to DMSO)” value [3] of the same compound?
The value was “viability greatly reduced”.

And the “cell viability (cells alive relative to DMSO)” value [4]?
The value was “viability greatly reduced”.

And the “cell viability (cells alive relative to DMSO)” value [5]?
Its value is “viability greatly reduced”.

What about the “cell viability of normal fibroblasts” value [6] of the same compound?
Its value is “not affected”.

And the “cell viability (cells alive relative to DMSO)” value [7]?
Its value is “viability greatly reduced”.
